Read-outs that look alike come from different tables or passages of the source.
Experiments:
BRD4 BD1 = BRD4 BD1 (Homo sapiens (Human), UniProt O60885); experiment: Bromodomain binding assay (T7 phage display, qPCR), BRD4 BD1; conditions: for Kd: read-out: BRD4 BD1 Kd
BRD4 BD2 = BRD4 BD2 (Homo sapiens (Human), UniProt O60885); experiment: Bromodomain binding assay (T7 phage display, qPCR), BRD4 BD2; conditions: for Kd: read-out: BRD4 BD2 Kd
human liver hepatocytes = experiment: Intrinsic clearance in human liver hepatocytes; assay type: in vitro ADME; conditions: human cryopreserved hepatocytes, 0.5 μM test compound
Summary of the method: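 Cryopreserved human hepatocytes in supplemented Williams Medium E were incubated at 37 °C, 5% CO2, with 0.5 μM compound at 0.25 million cells/mL final. Aliquots taken up to 120 min were quenched into acetonitrile and analysed by UPLC-MS/MS. Clearance came from an exponential decay fit of compound-to-internal-standard ratio over time.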

[1] = Solubility in topical formulations; assay type: physicochemical; conditions: thermodynamic from solid, 5 hr at 32° C.
Description: The solubilities of solid exemplary compounds were determined in a selection of solvents and solvent combinations (Transcutol, 50:50 Transcutol:water, Labrasol, propylene glycol and 1:5:4 ethanol:propylene glycol:water), after equilibration. An appropriate volume of each combination was added to a manual weighing of solid compound to provide a 20 mg/mL concentration. The resulting suspension was shaken at 1000 rpm for 5 hr at 32° C. before centrifugation at 13,000×g for 10 min to pellet any precipitate. The supernatant solution was removed and inserted into a HPLC vial and quantified by HPLC-UV against a calibration of a known concentration of the compound in DMSO.

[2] = Stability in human skin S9 fraction; assay type: in vitro ADME; conditions: human, human skin S9 fraction, pH 7.4; 0.3 mg/mL S9, NADPH, UDPGA, 0.5 μM compound; read-out: T1/2 (min) in human skin S9 fractions
Description: An incubation mixture was prepared containing 50 mM potassium phosphate buffer, pH 7.4), 0.3 mg/mL human skin S9 (Sekisui Xenotech), NADPH (final conc 0.8 mg/mL), UDPGA (final conc 0.16 mg/mL) and warmed to 37° C. for 5 min. The reaction was initiated upon addition of test compound (final concentration 0.5 μM). Immediately, at time zero, then at 3, 6, 15, 30, 60, 120 and 180 min, an aliquot (50 μL) of the incubation mixture was removed and mixed with acetonitrile (100 μL) to terminate the reaction. Internal standard was added to all samples, the samples centrifuged to sediment precipitated protein and the plates then sealed prior to UPLC-MS/MS analysis using a Quattro Premier XE (Waters corporation, USA).
Grafit (Erithacus Ltd) was used to calculate the exponential decay and consequently the rate constant (k) from the ratio of peak area of test compound to internal standard at each timepoint. The half life (T1/2) of each test compound was determined using the following equation: T1/2=0.693/k

[3] = Hydrolytic stability at a range of pHs; assay type: physicochemical; conditions: for decomposition at all pH values tested: pH 4.0, 5.5 and 7.4, text summary; for pH 4.0 % decomposition: pH 4.0 buffer; for pH 4.0 % decomposition / pH 5.5 % decomposition / pH 7.4 % decomposition: 60° C., 6 days; for pH 5.5 % decomposition: pH 5.5 buffer; for pH 7.4 % decomposition: pH 7.4 buffer
Description: To test the hydrolytic stability a 1 mg/mL solution of test materials was made in DMSO (0.1% solution). To 300 μL of each solution in a HPLC vials was added 1200 μL of one of the following: pH 4.0 buffer—left at 60° C. for 5 days. Samples taken t=0 hr and 6 days pH 5.5 buffer—left at 60° C. for 5 days. Samples taken t=0 hr and 6 days pH 7.4 buffer—left at 60° C. for 5 days. Samples taken t=0 hr and 6 days A 100 μL aliquot was taken at each time point and added to 900 μL of DMSO. This sample was used to determine % decomposition.
% decomposition was measured with a Bruker MicrOTOF II focus ESI Mass Spectrometer connected in parallel to Dionex Ultimate 3000 RSLC system with diode array detector.

[4] = single point, screened at 30 times Kd, lower numbers indicate stronger hits
[5] = Labrasol, oil or lipid, read-out: Solubility in LB (Labrasol)
[6] = Transcutol, organic solvent or mixture, read-out: Solubility in TC (Transcutol)
[7] = Transcutol:water 1:1, aqueous with cosolvent or surfactant or cyclodextrin, read-out: Solubility in TC:water 1:1
[8] = ethanol:propylene glycol:water 1:5:4, aqueous with cosolvent or surfactant or cyclodextrin, read-out: Solubility in EtOH:PG:water 1:5:4
[9] = propylene glycol, organic solvent or mixture, read-out: Solubility in PG (Propylene glycol)

Kd (BRD4 BD1) [nM] | BRD4(1) % Ctrl (BRD4 BD1; [4]) [% Ctrl] | Kd (BRD4 BD2) [nM] | BRD4(2) % Ctrl (BRD4 BD2; [4]) [% Ctrl] | Intrinsic clearance, % Liver Blood Flow (human liver hepatocytes) [% Liver Blood Flow] | solubility at 5 hr [1, 5] [µg/mL] | solubility at 5 hr [1, 6] [µg/mL] | solubility at 5 hr [1, 7] [µg/mL] | solubility at 5 hr [1, 8] [µg/mL] | solubility at 5 hr [1, 9] [µg/mL] | half-life at 0.5 μM [2] [min] | decomposition at all pH values tested [3] [%] | pH 4.0 % decomposition [3] [%] | pH 5.5 % decomposition [3] [%] | pH 7.4 % decomposition [3] [%] | SMILES
≤ 10 | 0 | ≤ 10 | 2.6 | 83 | 1000 to 10000 | > 10000 | 1000 to 10000 | 1000 to 10000 | 1000 to 10000 | > 120 | < 5 | 0 | 0 | 0 | Cn1cc(-c2cccc(O)c2Oc2ccccc2)c2cc[nH]c2c1=O [Example 1, 4-(3-hydroxy-2-phenoxyphenyl)-6-methyl-1,6-dihydro-7H-pyrrolo[2,3-c]pyridin-7-one]
10 to 100 |  | ≤ 10 |  | 86 | > 10000 | > 10000 | > 10000 | 1000 to 10000 | > 10000 | > 120 | < 5 | 0 | 0 | 0 | Cn1cc(-c2c(O)cccc2Oc2ccccc2)c2cc[nH]c2c1=O [Example 3, 4-(2-hydroxy-6-phenoxyphenyl)-6-methyl-1,6-dihydro-7H-pyrrolo[2,3-c]pyridin-7-one]

Reference: patent US12384777B2 (Tay Therapeutics Limited, priority 2019, dated 2025)
